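Step 1: Grow cells in 96-well plates. Step 2: Expose to compound for 48 hours at 5 concentrations. Step 3: Interpolate endpoints linearly; if unreached, use highest concentration. Abbreviation: GI50, concentration required for 50% inhibition of growth. TGI marks complete inhibition of growth.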
Columns and labels:
Test in all cases: NCI anticancer screen, dose series, 48 h
HT29 colon = system: HT29 colon
LOX IMVI melanoma = system: LOX IMVI melanoma
ACHN renal = system: ACHN renal
NCI/ADR-RES ovarian = system: NCI/ADR-RES ovarian
A549 NSCLC = system: A549 NSCLC
SK-OV-3 ovarian = system: SK-OV-3 ovarian
SF-539 CNS = system: SF-539 CNS
K-562 leukemia = system: K-562 leukemia
MALME-3M melanoma = system: MALME-3M melanoma

Row | Structure (SMILES) | GI50 (HT29 colon) [µM] | TGI (HT29 colon) [µM] | GI50 (LOX IMVI melanoma) [µM] | TGI (LOX IMVI melanoma) [µM] | GI50 (ACHN renal) [µM] | TGI (ACHN renal) [µM] | GI50 (NCI/ADR-RES ovarian) [µM] | TGI (NCI/ADR-RES ovarian) [µM] | GI50 (A549 NSCLC) [µM] | TGI (A549 NSCLC) [µM] | GI50 (SK-OV-3 ovarian) [µM] | TGI (SK-OV-3 ovarian) [µM] | GI50 (SF-539 CNS) [µM] | TGI (SF-539 CNS) [µM] | GI50 (K-562 leukemia) [µM] | TGI (K-562 leukemia) [µM] | GI50 (MALME-3M melanoma) [µM] | TGI (MALME-3M melanoma) [µM]
1 | Cc1cc(-c2ncc(CC(=O)Nc3ccc(-c4cnccn4)cn3)cc2C)ccn1 | 57.8 | > 100 | 68.7 | > 100 | 31.5 | > 100 | 17.6 | > 100 | 36.7 | > 100 | > 100 | > 100 | 26.1 | > 100 | 22.2 | > 100 | 21.2 | > 100
2 | CC1=C(C(=O)Nc2ccccc2C)C(c2ccccc2)C(C(=O)Nc2ccccc2C)=C(C)N1 | – | > 100 | – | 42.6 | – | > 100 | – | – | – | > 100 | – | > 100 | – | > 100 | – | > 100 | – | > 100
3 | O=C(c1ccccc1)C(c1ccccc1)C1(O)C(=O)Nc2c(Cl)cc(Cl)cc21 (stereo not given) | – | 58 | – | 42.8 | – | 33.1 | – | – | – | 41.8 | – | 70.1 | – | – | – | 50.3 | – | 32.7
4 | CCOC(=O)[C@@]1(C)C=C2O[C@@H]3OC4(CCCCC4)O[C@@H]3C2=C2C(O)=CC=C(O)[C@]21C(=O)OC | – | > 68 | – | > 68 | – | > 68 | – | – | – | > 68 | – | > 68 | – | – | – | > 68 | – | > 68
5 | CCC[CH2][Sn-]([CH2]CCC)([CH2]CCC)[O]c1cc(Cl)c(Cl)cc1Cl | 0.162 | 0.404 | 0.175 | 0.34 | 0.19 | 0.339 | 0.163 | 0.385 | 0.205 | 0.502 | 0.15 | 0.379 | 0.267 | 0.437 | 0.165 | 0.411 | 0.174 | 0.379
6 | Nn1c(-c2ccccc2)nc2ccc(Br)cc2c1=O | – | > 100 | – | – | – | > 100 | – | – | – | > 100 | – | > 100 | – | > 100 | – | > 100 | – | > 100
7 | Cc1ccc(OCC(=O)N2N=C(c3ccccc3)CC2(O)c2ccccc2)cc1 (stereo not given) | – | – | – | > 100 | – | > 100 | – | – | – | 82.8 | – | > 100 | – | > 100 | – | > 100 | – | > 100
8 | CC1=C(C(=O)Nc2c(C)cccc2C)C(c2ccc3c(c2)OCO3)C(C(=O)Nc2c(C)cccc2C)=C(C)N1 | – | 30.2 | – | 28.1 | – | 35.2 | – | – | – | 59 | – | > 100 | – | 37.7 | – | 73 | – | 45.7
9 | N#Cc1cn(C2OC(CO)C(O)C2O)c2ncnc(N)c12 (stereo not given) | < 0.01 | – | < 0.01 | – | < 0.01 | 0.02 | 0.0459 | – | < 0.01 | > 450 | 0.108 | – | – | – | 0.0175 | – | – | –
10 | O=C1C(=O)N(C(=O)c2ccc(Cl)c(Cl)c2)c2ccccc21 | – | > 100 | – | > 100 | – | > 100 | – | – | – | > 100 | – | > 100 | – | > 100 | – | > 100 | – | –
11 | O=C(c1ccccc1)C(C(=O)c1ccccc1)C1(O)C(=O)c2ccccc2C1=O | – | > 100 | – | > 100 | – | > 100 | – | – | – | > 100 | – | > 100 | – | > 100 | – | 60.6 | – | 96.6
12 | O=C(O)CSc1n[nH]c(-c2ccc(O)cc2)n1 | – | > 100 | – | – | – | > 100 | – | – | – | > 100 | – | > 100 | – | > 100 | – | > 100 | – | > 100
13 | O=C1CC(O)C=C1Nc1ccc(Cl)cc1 (stereo not given) | – | > 100 | – | > 100 | – | > 100 | – | – | – | 35.5 | – | > 100 | – | > 100 | – | > 100 | – | > 100
14 | N#CCC(=O)Nc1cccc(C(F)(F)F)c1 | – | > 100 | – | > 100 | – | > 100 | – | – | – | > 100 | – | > 100 | – | > 100 | – | – | – | > 100
15 | COC(=O)C1CC2(CC3=C1CCCC3)OCCO2 (stereo not given) | – | > 100 | – | > 100 | – | – | – | – | – | > 100 | – | > 100 | – | > 100 | – | > 100 | – | > 100
16 | COc1cc([C@H]2c3cc4c(cc3O[C@@]3(O)COC(=O)[C@@H]23)OCO4)cc(OC)c1OC | – | > 100 | – | > 100 | – | > 100 | – | > 100 | – | > 100 | – | > 100 | – | > 100 | – | > 100 | – | > 100
17 | CC1=C(C)C(=O)c2c(cc3ccc4ccccc4n23)C1=O | – | > 100 | – | > 100 | – | > 100 | – | – | – | > 100 | – | > 100 | – | > 100 | – | > 100 | – | > 100
